Measured values as given in patent EP1145714A1, “DRUGS” (Takeda Chemical Industries, Ltd., priority 1998, dated 2000).

What was measured:
Format in all cases: in vivo, beagle dogs
[1] = test system: morphine-induced vomiting in dogs; test: Morphine-induced vomiting in dogs, oral dosing; conditions: morphine 0.3 mg/kg subcutaneous
Method: Male 6 or 7 beagle dogs (8.8 to 14.5 kg) per one group were used. Morphine was subcutaneously administered at 0.3 mg/0. 03 ml/kg. 2.5 hours before morphine dosing, a small amount of a feed was given to the animals. 30 minutes thereafter, predetermined doses of the compound No. 3 were orally given. To a control animal group under no fasting was orally given a predetermined volume of 0.5 % methyl cellulose solution. A predetermined dose of ondansetron was orally given to the animals under fasting. To a control animal group of ondansetron under fasting was orally given a predetermined volume of physiological saline. The frequency of vomiting was counted up to 30 minutes after morphine dosing.
The compound No. 3 was suspended in 0.5 % methyl cellulose solution and was then orally administered at a ratio of 1 ml per 1 kg body weight. An injection of ondansetron at a concentration of 0.2 w/v % was orally dosed. Additionally, 0.5 % methyl cellulose solution was orally given at a ratio of 1 ml per 1 kg body weight, while physiological saline was orally given at a ratio of 0.5 ml per 1 kg body weight. The data relating to the frequency of vomiting, the time period (latency) until first vomiting and the time period from the occurrence of vomiting to the termination thereof were statistically analyzed by the Dunnett test or t test, with reference to the difference from the control group.
The retching suppression ratio and vomiting suppression ratio were calculated by the following formula. [Frequency of retching or vomiting in control] - [Frequency of retching or vomiting in animals dosed with compound No. 3] / [Frequency of retching or vomiting in control] x 100 (%) [formula]

[2] = test system: vomiting induced by a central emetic agent apomorphine in dogs; test: Vomiting induced by apomorphine in dogs; conditions: apomorphine 0.1 mg/kg subcutaneous; for B: Frequency of vomiting (mean ± SD) / C: Time period until first vomiting (minute; mean ± SD) / D: Duration of vomiting (minute; mean ± SD) / Number of dogs with vomiting/number of tested dogs: one hour
Method: 3 male or female beagle dogs (7.8 to 15.9 kg) per one group were used. Apomorphine was subcutaneously given at 0.1 mg/ml/kg. 2.5 hours prior to apomorphine administration, a small amount of a feed was given to the animals. 30 minutes thereafter, predetermined doses of the compound No. 3 were orally given. Similarly, 0.5 % methyl cellulose solution was orally given to a control animal group under no fasting. A predetermined dose of ondansetron was given orally to the animals under fasting. The frequency of vomiting was counted in number, up to one hour after apomorphine administration. The compound No. 3 was dissolved in 0.5 % methyl cellulose solution, for oral dosing at a ratio of 1 ml per 1 kg • body weight. An injection of ondansetron at a concentration of 0.2% w/v was orally given. Additionally, 0.5 % methyl cellulose solution was orally given at a ratio of 1 ml per 1 kg • body weight. The data relating to the frequency of vomiting, the latency and the time period from the occurrence of vomiting to the termination thereof were statistically analyzed by the Dunnett test, with reference to the difference from the control group.
The vomiting suppression ratio was calculated by the following formula.

[3] = test system: acute vomiting induced by a central emetic agent loperamide in dogs; test: Acute vomiting induced by loperamide in dogs; conditions: loperamide 1 mg/kg subcutaneous; for B: Frequency of vomiting (mean ± SD) / C: Time period until first vomiting (minute; mean ± SD) / D: Duration of vomiting (minute; mean ± SD) / Number of dogs with vomiting/number of tested dogs: 3 hours
Method: 3 male or female beagle dogs (7.7 to 12.7 kg) per one group were used. Loperamide was subcutaneously given at 1 mg/ml/kg. 2.5 hours prior to loperamide administration, a small amount of a feed was given to the animals. 30 minutes thereafter, predetermined doses of the compound No. 3 were orally given. Similarly, 0.5 % methyl cellulose solution was orally given to a control animal group under no fasting. Predetermined doses of naloxone and ondansetron were given intravenously and orally, respectively to the animals under fasting, 30 minutes prior to loperamide administration. The frequency of vomiting was counted, up to 3 hours after loperamide administration. The compound No. 3 was dissolved in 0.5 % methyl cellulose solution, for oral dosing at a ratio of 0.25 to 1 ml per 1 kg body weight. Additionally, naloxone was intravenously given in a solution at a concentration of 0.05 % w/v. An injection of ondansetron at a concentration of 0.2 % w/v was orally given. Still additionally, 0.5 % methyl cellulose solution was orally given at a ratio of 1 ml per 1 kg body weight. The data relating to the frequency of vomiting, the latency and the time period from the occurrence of vomiting to the termination thereof were statistically analyzed by the Dunnett test, with reference to the difference from the control group.
The vomiting suppression ratio was calculated by the following formula. [Frequency of retching or vomiting in control] - [Frequency of retching or vomiting in animals dosed with compound No. 3] / [frequency of retching or vomiting in control] x 100 (%) [formula]

[4] = 1 mg/kg p.o., under fasting, 30 minutes

## Cc1nccn1CC1CCc2c(c3ccccc3n2C)C1=O (centres unmarked) [Ondansetron, ondansetron, reference compound]
[1]; 1 mg/kg p.o.
  Acute vomiting suppression ratio: 48 % NS
  Effect on vomiting (in words): did not suppress
[1]; [4]
  B: Frequency of vomiting (mean ± SD): 1.7 ± 0.3
  C: Time period until first vomiting (minute; mean ± SD): 5.0 ± 1.0 min
  D: Duration of vomiting (minute; mean ± SD): 1.0 ± 0.6 min
  Number of dogs with vomiting/number of tested dogs: 3/3
[2]; 10 mg/kg p.o.
  Effect on vomiting (in words): did not suppress
  Vomiting suppression ratio: 0 % NS
  B: Frequency of vomiting (mean ± SD): 13.7 ± 2.4
  C: Time period until first vomiting (minute; mean ± SD): 2.4 ± 0.6 min
  D: Duration of vomiting (minute; mean ± SD): 22.8 ± 3.6 min
  Number of dogs with vomiting/number of tested dogs: 3/3
[3]; 10 mg/kg p.o.
  Effect on vomiting (in words): did not suppress
  Vomiting suppression ratio: 3 % NS
  B: Frequency of vomiting (mean ± SD): 9.7 ± 2.7
  C: Time period until first vomiting (minute; mean ± SD): 0.50 ± 0.14 min
  D: Duration of vomiting (minute; mean ± SD): 1.30 ± 0.11 min
  Number of dogs with vomiting/number of tested dogs: 3/3

## Cc1ccc(-c2c3n(c(=O)c4ncccc24)CC[C@@H](C)CN(Cc2cc(C(F)(F)F)cc(C(F)(F)F)c2)C3=O)cc1 [Cpd. No.3, (9R)-7-[3,5-bis(trifluoromethyl)benzyl]-6,7,8,9,10,11-hexahydro-9-methyl-5-(4-methylphenyl)-6,13-dioxo-13H-[1,4]diazocino[2,1-g][1,7]naphthylidine]
[1]; 0.1 mg/kg p.o.
  Acute vomiting suppression ratio: 55 % NS
[1]; 0.1 mg/kg p.o., 30 minutes
  B: Frequency of vomiting (mean ± 3D): 1.0 ± 0
  C: Time period until first vomiting (minute; mean ± SD): 8.7 ± 1.2 min
  D: Duration of vomiting (minute; mean ± SD): 0 min
  Number of dogs with vomiting/number of tested dogs: 3/3
[1]; 0.3 mg/kg p.o.
  Acute vomiting suppression ratio: 86 % NS
  Effect on vomiting (in words): significantly suppressed
[1]; 0.3 mg/kg p.o., 30 minutes
  B: Frequency of vomiting (mean ± 3D): 0.3 ± 0.3a
  C: Time period until first vomiting (minute; mean ± SD): 22.0 ± 8.0 a minute
  D: Duration of vomiting (minute; mean ± SD): 0 min
  Number of dogs with vomiting/number of tested dogs: 1/3
[1]; 1 mg/kg p.o.
  Acute vomiting suppression ratio: 100 % b
  Effect on vomiting (in words): completely suppressed
[1]; 1 mg/kg p.o., 30 minutes
  B: Frequency of vomiting (mean ± 3D): 0 b
  C: Time period until first vomiting (minute; mean ± SD): 30 b minute
  D: Duration of vomiting (minute; mean ± SD): 0 min
  Number of dogs with vomiting/number of tested dogs: 0/3
[2]; 3 mg/kg p.o.
  Effect on vomiting (in words): likely to be suppressed
  Vomiting suppression ratio: 48 % NS
  B: Frequency of vomiting (mean ± SD): 6.3 ± 1.3
  C: Time period until first vomiting (minute; mean ± SD): 7.2 ± 0.6 min
  D: Duration of vomiting (minute; mean ± SD): 12.0 ± 3.0 min
  Number of dogs with vomiting/number of tested dogs: 3/3
[2]; 10 mg/kg p.o.
  Effect on the duration of vomiting from the start to the termination (in words): greatly shortened
  Effect on vomiting (in words): prominently suppressed
  Vomiting suppression ratio: 89 % a
  B: Frequency of vomiting (mean ± SD): 1.3± 0.9b
  C: Time period until first vomiting (minute; mean ± SD): 27.6 ± 13.8 min
  D: Duration of vomiting (minute; mean ± SD): 1.2 ± 1.2 a minute
  Number of dogs with vomiting/number of tested dogs: 2/3
[3]; 0.01 mg/kg p.o.
  Vomiting suppression ratio: 20 % NS
  B: Frequency of vomiting (mean ± SD): 8.0 ± 2.5
  C: Time period until first vomiting (minute; mean ± SD): 0.74 ± 0.07 min
  D: Duration of vomiting (minute; mean ± SD): 1.24 ± 0.21 min
  Number of dogs with vomiting/number of tested dogs: 3/3
[3]; 0.03 mg/kg or higher p.o.
  Effect on vomiting (in words): significantly suppressed
[3]; 0.03 mg/kg p.o.
  Vomiting suppression ratio: 80 % a
  B: Frequency of vomiting (mean ± SD): 2.0 ± 0.6 a
  C: Time period until first vomiting (minute; mean ± SD): 1.08 ± 0.11 min
  D: Duration of vomiting (minute; mean ± SD): 0.44 ± 0.22 min
  Number of dogs with vomiting/number of tested dogs: 3/3
[3]; 0.1 mg/kg p.o.
  Vomiting suppression ratio: 73 % a
  B: Frequency of vomiting (mean ± SD): 2.7 ± 2.2 a
  C: Time period until first vomiting (minute; mean ± SD): 1.98 ± 0.55 a minute
  D: Duration of vomiting (minute; mean ± SD): 0.59 ± 0.59 min
  Number of dogs with vomiting/number of tested dogs: 2/3
[3]; 1 mg/kg p.o.
  Vomiting suppression ratio: 67 % a
  B: Frequency of vomiting (mean ± SD): 3.3 ± 1.2 a
  C: Time period until first vomiting (minute; mean ± SD): 1.25 ± 0.35 min
  D: Duration of vomiting (minute; mean ± SD): 0.68 ± 0.34 min
  Number of dogs with vomiting/number of tested dogs: 3/3
[3]; 3 mg/kg p.o.
  Vomiting suppression ratio: 70 % a
  B: Frequency of vomiting (mean ± SD): 3.0 ± 0.6 a
  C: Time period until first vomiting (minute; mean ± SD): 1.63 ± 0.34 min
  D: Duration of vomiting (minute; mean ± SD): 0.38 ± 0.13 a minute
  Number of dogs with vomiting/number of tested dogs: 3/3
[3]; 10 mg/kg p.o.
  Effect on vomiting (in words): completely suppressed
  Vomiting suppression ratio: 100 % b
  B: Frequency of vomiting (mean ± SD): 0 b
  C: Time period until first vomiting (minute; mean ± SD): 3 b minute
  D: Duration of vomiting (minute; mean ± SD): 0 b minute
  Number of dogs with vomiting/number of tested dogs: 0/3
